2 compounds from US20230073834A1, “SUBNORMOTHERMIC MACHINE PERFUSION OF ORGANS WITH CARBON MONOXIDE AND OXYGEN” (priority 2021, published 2023) can be followed below.

In one test the test system is porcine DCD kidneys. Briefly: Ex vivo pulsatile perfusion of porcine DCD kidneys with CORM-401 in UW solution, then blood reperfusion. On the set-up: species or system large male Landrace pig. As to the method: (§1) Methods: To stimulate donation after circulatory death condition, kidneys from large male Landrace pig were retrieved after 1-hour warm ischemia in situ by cross-clamping the renal pedicle. […] Kidneys were then reperfused with normothermic isogeneic porcine blood through oxygenated pulsatile perfusion for 10 hours. Urine was collected, vascular flow was assessed during reperfusion and histopathology was assessed after 10 hours of reperfusion. Sections were stained with H&E (not shown), TUNEL (FIG. 4A) and MSB (FIG. 4B) to quantify ATN (FIG. 4C), Apoptosis (brown spot), Hemorrhage (yellow stain), and neutrophil gelatinase-associated lipocalin (NGAL) to quantify kidney injury (FIG. 4D).

For another test, the system named is Toll-like receptor 4. In words: Toll-like receptor suppression in CORM-401 perfused porcine DCD kidneys. The conditions noted are these: 200 μM CORM-401 perfused kidneys. Also noted: species or system large male Landrace pig. As to the method: as §1
The test system of a further test is Toll-like receptor 6. The test is described as above. On the set-up: species or system large male Landrace pig. The note with it: 200 μM CORM-401 perfused kidneys. The protocol: as §1
Another test concerns Toll-like receptor 2. The test is described as above. The note with it: 200 μM CORM-401 perfused kidneys. On the set-up: species or system large male Landrace pig. As to the method:
as §1

The subject of another test is Pig kidneys. In words: Ex vivo subnormothermic (22° C.) pulsatile perfusion of pig kidneys with HBOC-201 versus blood or static cold storage. As to the method: Methods: Pig kidneys (n=5) were procured after 30 minutes of warm in situ ischemia by cross-clamping the renal arteries. Organs were flushed with histidine tryptophan ketoglutarate solution and subjected to static cold storage or pulsatile perfusion with an RM3 pump at 22° C. for 4 hours with HBOC-201 and blood. Thereafter, kidneys were reperfused with normothermic (37° C.) oxygenated blood for 4 hours. Blood and urine were subjected to biochemical analysis. Total urine output, urinary protein, albumin/creatinine ratio, flow rate, resistance were measured. Acute tubular necrosis, apoptosis, urinary kidney damage markers, neutrophil gelatinase-associated lipocalin 1, and interleukin 6 were also assessed.

[1] abbreviates: 200 μM, 4 h perfusion at 4° C. in UW solution, 10 h blood reperfusion, vs inactive CORM-401.
Setting [2] is: 22° C. 4 hours perfusion, 4 hours reperfusion, as with blood.
[3] abbreviates: 22° C. 4 hours perfusion, 4 hours reperfusion, versus cold storage.

Consider `CN(CC(=O)O)C(=S)[S-].[C-]#[O+].[C-]#[O+].[C-]#[O+].[C-]#[O+].[Mn]` [CORM-401], for which the “intrarenal hemorrhage and vascular dotting during reperfusion” value in the test on porcine DCD kidneys (200 μM, 4 h perfusion at 4° C. in UW solution, 10 h blood reperfusion) was “prevented”. In the test on porcine DCD kidneys (setting [1]), the “ATN (acute tubular necrosis) in histopathologic sections” value is given as “reduced”; the “dUTP nick end labeling staining in histopathologic sections” value is recorded as “reduced”; the “kidney damage markers (kidney damage marker-1 and neutrophil gelatinase-associated lipocalin)” value is reported as “attenuated”. In addition, the urinary protein excretion result in the test with porcine DCD kidneys (200 μM, 4 h perfusion at 4° C. in University of Wisconsin solution, 10 h normothermic blood reperfusion, vs inactive CORM-401) is given as “reduced”. For the same compound, the “injury in porcine DCD kidneys” value in the test with porcine DCD kidneys (1 h warm ischemia, perfusion with UW solution, 10 h blood reperfusion at 37° C.) is given as “reduced injury”. For the same compound, the “Toll-like receptor 4 suppression (anti-inflammatory action)” value with Toll-like receptor 4 is listed as “suppressing”. In addition, in the test with Toll-like receptor 6, the “Toll-like receptor 6 suppression (anti-inflammatory action)” value is reported as “suppressing”. Also, the “Toll-like receptor 2 suppression (anti-inflammatory action)” value in the test with Toll-like receptor 2 is listed as “suppressing”.
For the compound “HBOC-201: acellular hemoglobin-based oxygen carrier; blood free oxygen carrier (Hemopure)”, the “renal blood flow and function upon reperfusion” value with Pig kidneys (22° C. 4 hours perfusion, 4 hours reperfusion with 37° C. oxygenated blood, compared with blood-treated kidneys) is reported as “similar”. In the test on Pig kidneys (setting [2]), the IL6 levels entry is on record as “similarly reduced” and the Urinary damage markers result was “similarly reduced”. Further, in the test on Pig kidneys (setting [3]), the “TUNEL staining (apoptosis)” value is reported as “vastly reduced” and the “acute tubular necrosis scores” value is reported as “vastly reduced”. In addition, in the test with Pig kidneys (22° C. 4 hours perfusion, 4 hours reperfusion, versus cold storage, listed as HBOC), the “TUNEL staining (apoptosis)” value is “reduces apoptosis”. In addition, the tissues oxygen saturation result with Pig kidneys (22° C., 4 hours perfusion, compared with blood) is reported as “equivalent to blood”.
